According to patent US10738028B2, “Spiro three-membered ring, spiro five-membered ring peptide deformylase inhibitor and use thereof in antibacteria and anti-tumor” (priority 2016, dated 2020):

How the values were obtained:
Type in all cases: cell-based
[1] = test system: Streptococcus pneoumoniae (SPN); experiment: MIC, two-fold agar dilution (CLSI), clinical isolates
Summary of the method: (§1)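 CLSI two-fold agar dilution; MIC of test samples read per tested strain.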

[2] = test system: Escherichia coli (including ESBLs, non-ESBLs); experiment: as above
Summary of the method: as §1

[3] = test system: methicillin-sensitive Staphylococcus aureus (MSSA); experiment: as above
Summary of the method: as §1

[4] = test system: Moraxella catarrhalis (BCA); experiment: as above
Summary of the method: as §1

[5] = test system: methicillin-resistant Staphylococcus aureus (MRSA); experiment: as above
Summary of the method: as §1

[6] = test system: Enterococcus faecium (EFM); experiment: as above
Summary of the method: as §1

[7] = test system: Enterococcus faecalis (EFA); experiment: as above
Summary of the method: as §1

[8] = test system: methicillin-sensitive Staphylococcus epidermidis (MSSE); experiment: as above
Summary of the method: as §1

[9] = test system: methicillin-resistant Staphylococcus epidermidis (MRSE); experiment: as above
Summary of the method: as §1

[10] = test system: HCT-116 colorectal cancer cell line; experiment: CCK-8 proliferation inhibition; details: Homo sapiens, HCT-116, 72 h, concentration of 30 μM; 72 hours; CCK-8; read-out: HCT116 inhibition rate/%
Summary of the method: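 HCT-116 cells, seeded at 2000 cells/well in McCoy's 5A with 10% newborn bovine serum, were cultured overnight at 37° C., 5% CO2, then exposed to compound dilutions in medium for 72 hours. Viability was read with 1:10 diluted CCK-8; controls received 1‰ DMSO.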

CCCC[C@H](CC(=O)NO)C(=O)N1CC2(CC2)C[C@H]1C(=O)NC1CC1 [Example 50, (S)—N-cyclopropyl-5-((R)-2-(2-(hydroxyamino)-2-oxoethyl)hexanoyl)-5-azaspiro[2.4]heptane-6-carboxamide]
-11%: inhibition at 30 µM [10]
> 32 µg/mL: Anti-bacterial activity (MIC), strain SPN 16-2 ([1]; clinical isolate SPN 16-2) | Anti-bacterial activity (MIC), strain SPN 16-4 ([1]; clinical isolate SPN 16-4) | Anti-bacterial activity (MIC), strain ECO+ 15-1 ([2]; clinical isolate ECO+ 15-1) | Anti-bacterial activity (MIC), strain ECO+ 15-2 ([2]; clinical isolate ECO+ 15-2) | Anti-bacterial activity (MIC), strain ECO+ 15-3 ([2]; clinical isolate ECO+ 15-3) | Anti-bacterial activity (MIC), strain ECO+ 15-4 ([2]; clinical isolate ECO+ 15-4) | Anti-bacterial activity (MIC), strain ECO− 15-1 ([2]; clinical isolate ECO− 15-1) | Anti-bacterial activity (MIC), strain ECO− 15-2 ([2]; clinical isolate ECO− 15-2) | Anti-bacterial activity (MIC), strain ECO− 15-3 ([2]; clinical isolate ECO− 15-3) | Anti-bacterial activity (MIC), strain ECO− 15-4 ([2]; clinical isolate ECO− 15-4) | Anti-bacterial activity (MIC), strain MSSA 15-3 ([3]; clinical isolate MSSA 15-3) | Anti-bacterial activity (MIC), strain MSSA 15-4 ([3]; clinical isolate MSSA 15-4) | Anti-bacterial activity (MIC), strain MSSA 15-5 ([3]; clinical isolate MSSA 15-5) | Anti-bacterial activity (MIC), strain MSSA 15-6 ([3]; clinical isolate MSSA 15-6) | Anti-bacterial activity (MIC), strain BCA 14-1 ([4]; clinical isolate BCA 14-1) | Anti-bacterial activity (MIC), strain BCA 14-4 ([4]; clinical isolate BCA 14-4) | Anti-bacterial activity (MIC), strain BCA 14-5 ([4]; clinical isolate BCA 14-5) | Anti-bacterial activity (MIC), strain BCA 14-6 ([4]; clinical isolate BCA 14-6) | Anti-bacterial activity (MIC), strain BCA 14-7 ([4]; clinical isolate BCA 14-7) | Anti-bacterial activity (MIC), strain BCA 14-8 ([4]; clinical isolate BCA 14-8) | Anti-bacterial activity (MIC), strain BCA 14-10 ([4]; clinical isolate BCA 14-10) | Anti-bacterial activity (MIC), strain MRSA 15-2 ([5]; clinical isolate MRSA 15-2) | Anti-bacterial activity (MIC), strain MRSA 15-3 ([5]; clinical isolate MRSA 15-3) | Anti-bacterial activity (MIC), strain MRSA 15-4 ([5]; clinical isolate MRSA 15-4) | Anti-bacterial activity (MIC), strain EFM 15-1 ([6]; clinical isolate EFM 15-1) | Anti-bacterial activity (MIC), strain EFM 15-2 ([6]; clinical isolate EFM 15-2) | Anti-bacterial activity (MIC), strain EFM 15-3 ([6]; clinical isolate EFM 15-3) | Anti-bacterial activity (MIC), strain EFM 15-4 ([6]; clinical isolate EFM 15-4) | Anti-bacterial activity (MIC), strain EFM 15-5 ([6]; clinical isolate EFM 15-5) | Anti-bacterial activity (MIC), strain EFM 15-6 ([6]; clinical isolate EFM 15-6) | Anti-bacterial activity (MIC), strain EFA 15-1 ([7]; clinical isolate EFA 15-1) | Anti-bacterial activity (MIC), strain EFA 15-2 ([7]; clinical isolate EFA 15-2) | Anti-bacterial activity (MIC), strain EFA 15-3 ([7]; clinical isolate EFA 15-3) | Anti-bacterial activity (MIC), strain EFA 15-4 ([7]; clinical isolate EFA 15-4) | Anti-bacterial activity (MIC), strain EFA 15-5 ([7]; clinical isolate EFA 15-5) | Anti-bacterial activity (MIC), strain EFA 15-6 ([7]; clinical isolate EFA 15-6) | Anti-bacterial activity (MIC), strain EFA 15-9 ([7]; clinical isolate EFA 15-9) | Anti-bacterial activity (MIC), strain MSSE 15-3 ([8]; clinical isolate MSSE 15-3) | Anti-bacterial activity (MIC), strain MSSE 15-4 ([8]; clinical isolate MSSE 15-4) | Anti-bacterial activity (MIC), strain MSSE 15-5 ([8]; clinical isolate MSSE 15-5) | Anti-bacterial activity (MIC), strain MSSE 15-6 ([8]; clinical isolate MSSE 15-6) | Anti-bacterial activity (MIC), strain MRSE 15-1 ([9]; clinical isolate MRSE 15-1) | Anti-bacterial activity (MIC), strain MRSE 15-2 ([9]; clinical isolate MRSE 15-2) | Anti-bacterial activity (MIC), strain MRSE 15-3 ([9]; clinical isolate MRSE 15-3) | Anti-bacterial activity (MIC), strain MRSE 15-7 ([9]; clinical isolate MRSE 15-7)
> 23 µg/mL: Anti-bacterial activity (MIC), strain MRSA 15-1 ([5]; clinical isolate MRSA 15-1)
